The results in this text go back to patent US20150257394A1, “TEA EXTRACTS AND USES IN PROMOTING PLANT GROWTH” (PLANT ACTIVITY LTD., priority 2012, published 2015).

The experiment relates to wheat seeds. Nature of the experiment: Effect of preservative on promotion of wheat seedling root growth by black tea extract (Example 10). The experiment is classed as in vivo. The settings on record: 1% solution of methyl paraben predissolved in hexalene glycol. The method, then: To evaluate whether a preservative affects the benefits of black tea extracts on wheat germination and early root growth, Malawi black tea extracts and Kenya black tea extracts were prepared according to Example 1 and used to treat wheat seeds (0.6 ml/kg seed) in combination with a preservative (1% solution of methyl paraben that has been predissolved in hexalene glycol (30:1 ratio of hexalene glycol to methyl paraben)) or without the preservative substantially according to Example 2. Root system measurements were performed according to Example 6.

Consider `COC(=O)c1ccc(O)cc1` [methyl paraben], for which the “effect of preservative on the benefits of the black tea extracts” value is recorded as “did not negatively affect”.
